# Measured values reported in PubChem BioAssay (NCI).
#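 Tested at 5 concentrations; 48 h exposure; 96-well plates; endpoints linearly interpolated, else capped at highest concentration. Here, GI50 denotes the concentration required for 50% inhibition of growth. The concentration for full growth arrest is given as TGI.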
# How the values were obtained:
# Assay in all cases: inhibition of tumour cell growth, NCI panel, 48 h
# CAKI-1 renal = test system: CAKI-1 renal
# COLO 205 colon = test system: COLO 205 colon
# HCC-2998 colon = test system: HCC-2998 colon
# IGROV1 ovarian = test system: IGROV1 ovarian
# KM12 colon = test system: KM12 colon
# NCI-H226 lung = test system: NCI-H226 lung
# SF-539 CNS = test system: SF-539 CNS
# SK-MEL-28 melanoma = test system: SK-MEL-28 melanoma
# UACC-257 melanoma = test system: UACC-257 melanoma
# UO-31 renal = test system: UO-31 renal
Compound,GI50 (CAKI-1 renal) [µM],TGI (CAKI-1 renal) [µM],GI50 (COLO 205 colon) [µM],TGI (COLO 205 colon) [µM],GI50 (HCC-2998 colon) [µM],TGI (HCC-2998 colon) [µM],GI50 (IGROV1 ovarian) [µM],TGI (IGROV1 ovarian) [µM],GI50 (KM12 colon) [µM],TGI (KM12 colon) [µM],GI50 (NCI-H226 lung) [µM],TGI (NCI-H226 lung) [µM],GI50 (SF-539 CNS) [µM],TGI (SF-539 CNS) [µM],GI50 (SK-MEL-28 melanoma) [µM],TGI (SK-MEL-28 melanoma) [µM],GI50 (UACC-257 melanoma) [µM],TGI (UACC-257 melanoma) [µM],GI50 (UO-31 renal) [µM],TGI (UO-31 renal) [µM]
CC/C=C\C[C@H]1C/C=C2/C(=O)C=C[C@@H]2C/C=C\CCCC(=O)O1,1.05,8.98,0.708,2.64,1.76,3.22,1.69,4.28,0.94,4.44,1.94,4.75,0.855,2.67,0.791,3.07,1.78,5.23,1.13,2.48
C=CCc1ccc(Oc2cc(CC=C)c3c(c2O)O[C@@H](CO)[C@H]3c2ccc(O)c(-c3cc(CC=C)ccc3O)c2)cc1,,> 100,,> 100,,> 100,,72.8,,> 100,,> 100,,> 100,,> 100,,> 100,,> 100
CCN(CC)c1ccc(N=Nc2ccc(-c3nc4ccc[n+](C)c4s3)cc2)cc1,,40.3,,11.4,,,,46.2,,10.9,,26.1,,23,,,,24.1,,46
COc1cc(/C=C/c2ccc(OC)c(OC)c2)cc(OC)c1,,94.1,,39.7,,,,> 100,,40.6,,74.4,,> 100,,> 100,,> 100,,83.1
O=C1/C(=C/c2cccc([N+](=O)[O-])c2)COc2ccc(Br)cc21,,,,> 100,,> 100,,> 100,,> 100,,,,> 100,,> 100,,> 100,,> 100
CC1=CC(C/C(C)=C/COc2ccc3ccc(=O)oc3c2)OC1=O (stereo not drawn),,> 100,,> 100,,> 100,,> 100,,> 100,,> 100,,> 100,,> 100,,> 100,,> 100
O=C1NC(=O)C(CC2CCCCCCCCCCC2=O)C(=O)N1 (stereo not drawn),,> 100,,> 100,,> 100,,> 100,,> 100,,> 100,,> 100,,> 100,,> 100,,> 100
COc1c(CCl)cc(-c2cc(=O)c3ccccc3s2)cc1CCl,,> 100,,> 100,,,,> 100,,> 100,,> 31.6,,> 42.3,,> 100,,> 100,,3.84
Cc1ccc2[nH]c(O)c(N=Nc3ccc(S(N)(=O)=O)cc3)c2c1,17.8,> 25,> 24.2,> 25,14.8,> 25,> 16.1,> 25,4.17,> 25,7.92,> 25,8.73,> 25,24.4,> 25,> 25,> 25,12.7,> 25
CCn1c(-c2ccc(OC(C)=O)cc2)c(C)c2cc(OC(C)=O)ccc21,,> 100,,47.4,,,,> 100,,36.8,,> 100,,43.5,,59.1,,94.9,,47.9
O=C1CC2c3ccccc3CCC2c2ccccc21 (stereo not drawn),,> 100,,11.2,,50.5,,86.6,,26.8,,52.4,,53.3,,> 100,,73.2,,50.8
CC1=C[C@H]2c3c(c(O)c(O)c4oc(-c5ccccc5)cc(=O)c34)[C@H](c3cc(O)c(O)c4oc(-c5ccccc5)cc(=O)c34)[C@H]2C(C)(C)C1,0.621,4.57,1.48,11.6,1.56,4.65,0.486,7.51,1.41,8.96,1.36,3.59,0.364,7.52,1.12,9.51,1.72,9.47,0.527,2
COc1ccc(C(=O)COc2ccc(/C=C3\COc4ccc(OC)cc4C3=O)cc2)cc1,32.4,> 100,51.8,> 100,,,26,54.7,8.72,85.8,54.7,> 100,25.2,65.6,19.9,56.9,52.1,> 100,18.4,61.5
CSC(C1c2ccccc2N(c2ccc(C)cc2)c2[nH]c(=O)n(C)c(=O)c21)S(=O)(=O)c1ccc(C)cc1 (stereo not drawn),,> 100,,> 100,,> 100,,> 100,,,,> 100,,> 100,,> 100,,> 100,,> 100
O=C(c1ccccc1)C1OC12C(=O)Nc1ccccc12 (stereo not drawn),,46,,34.5,,,,> 100,,,,> 100,,57.4,,> 100,,> 100,,> 100
O=C1NC2OC(C(O)CO)C(O)C2O1 (stereo not drawn),,> 100,,> 100,,> 100,,> 100,,> 100,,,,,,> 100,,> 100,,> 100
O=C(CCC1OCCO1)Nc1cc(NCc2ccccc2)ccc1OCc1ccccc1,,71.3,,52.1,,> 100,,> 100,,97.9,,> 100,,94.6,,> 100,,53.3,,> 100
O=C1CSC(c2ccc(Cl)cc2Cl)N1c1ccc(F)cc1 (stereo not drawn),24.9,42.7,,,17.6,31.5,16.1,33.1,15.6,29.8,18.2,38.2,19.2,33.4,,,20.1,36.5,16.6,31.5
NC(=O)NCc1c(C(N)=O)ncn1Cc1ccccc1,,> 100,,> 100,,> 100,,> 100,,,,,,> 100,,> 100,,> 100,,

Compound,GI50 (CAKI-1 renal) [µM],TGI (CAKI-1 renal) [µM],GI50 (COLO 205 colon) [µM],TGI (COLO 205 colon) [µM],GI50 (HCC-2998 colon) [µM],TGI (HCC-2998 colon) [µM],GI50 (IGROV1 ovarian) [µM],TGI (IGROV1 ovarian) [µM],GI50 (KM12 colon) [µM],TGI (KM12 colon) [µM],GI50 (NCI-H226 lung) [µM],TGI (NCI-H226 lung) [µM],GI50 (SF-539 CNS) [µM],TGI (SF-539 CNS) [µM],GI50 (SK-MEL-28 melanoma) [µM],TGI (SK-MEL-28 melanoma) [µM],GI50 (UACC-257 melanoma) [µM],TGI (UACC-257 melanoma) [µM],GI50 (UO-31 renal) [µM],TGI (UO-31 renal) [µM]
O=C1OC2CCCC[C@@H]2C2C[C@]34CCCCC3[C@@H](C(=O)O4)C12 (stereo partly drawn),,,,> 100,,> 100,,,,> 100,,> 100,,> 100,,> 100,,> 100,,> 100
O=C(/C=C\c1ccc(NCc2ccc(C(=O)O)cc2)cc1)CCl,16.6,32.8,14.2,29.4,,,16.7,37.2,17,32,17.1,41.6,15.5,29.3,16.8,31.4,11.4,23.8,14.6,29.2
COc1cc(NC(C)CCCN)c2nccc(C)c2c1 (stereo not drawn),,56,,28.4,,38.7,,44.6,,32.5,,,,35.3,,35.3,,,,53.8
Cn1c2ccccc2c(=O)c2ccc(Cl)cc21,,,,> 10,,> 10,,> 10,,> 10,,,,> 10,,> 10,,,,
COc1cc(/C=C/c2cc(/C=C/c3ccc(O)c(OC)c3)n(C(=O)Nc3ccc(C)cc3C)n2)ccc1O,0.367,5.09,1.9,3.38,0.738,4.26,0.464,2.76,,,0.389,2.1,,,0.509,2.46,1.46,5.25,0.362,1.74
CCCCCCCCCCCCCCCCCCOc1ccccc1CC(=O)OCC[N+]1(C)CCCC1,1.6,4.05,,,,,1.52,3.06,1.88,3.49,2.2,6.09,1.86,3.62,2.72,7.86,2.82,9.12,3.27,15
CN(CCC#N)c1ccc(/C=C(\C#N)c2ccc(Br)cc2)cc1,> 100,> 100,,,,,> 100,> 100,3.7,> 100,> 100,> 100,,,> 100,> 100,> 100,> 100,> 100,> 100
OCc1ccc(C2CC(c3ccco3)=NN2c2ccccc2)o1 (stereo not drawn),,,,> 100,,,,> 100,,> 100,,> 100,,> 100,,> 100,,,,> 100
O=c1cccc(C#CC#CC2=CCCCC2)o1,6.48,10.3,4.58,13.5,,,5.4,18.1,5.84,13.6,6.87,14.6,0.235,3.04,> 29.9,> 52.6,7.49,12.9,3.99,11
Cc1ccc(S(=O)(=O)C(C#N)c2nc3ccccc3nc2-n2ccnc2)cc1 (stereo not drawn),,,,> 100,,> 100,,> 100,,> 100,,> 100,,> 100,,> 100,,> 100,,> 100
COc1ccc(OC)c2c(C(=O)O)c(Cc3ccccc3)ccc12,,> 100,,> 100,,> 100,,> 100,,> 100,,> 100,,,,> 100,,> 100,,> 100
Clc1ccc2c(c1)-c1c3c(nn1-c1ccccc1)-c1ccccc1SC3O2 (stereo not drawn),,,,> 100,,> 100,,> 100,,> 100,,,,> 100,,> 100,,> 100,,> 100
C1CCC([PH+](C2CCCCC2)C2CCCCC2[PH+](C2CCCCC2)C2CCCCC2)CC1.O=C(C1[CH-]CCCC1)C1CCCC[N-]1.[Au] (stereo not drawn),1.07,2.72,,,,,,,,,0.455,2.43,0.31,1.28,,,0.337,3.36,1.45,2.76
COc1c(C(C)C)cc2c3c1OC(=O)[C@@]31CCCC(C)(C)C1CC2 (stereo partly drawn),,> 100,,31.9,,> 100,,> 100,,,,44.4,,44.8,,> 100,,54.1,,57.8
Cc1ncc(CCCN(C)C)cc1Nc1ncc2c(n1)-c1ccc(C(F)(F)F)cc1NC(=S)C2,0.0779,5.54,< 0.0111,< 0.0198,0.0135,10.3,0.43,1.35,< 0.0134,10.9,0.659,15.7,0.0312,0.11,,,,,0.494,12.5
CC(=O)O[C@]12CCCCCC1C1(O)C(O)CCCC[C@H]12 (stereo partly drawn),,,,> 100,,,,,,> 100,,> 100,,,,> 100,,> 100,,> 100
c1ccc(C2Nc3ccccc3C3OCCCC23)cc1 (stereo not drawn),,42.3,,> 100,,> 100,,70.2,,> 100,,68.3,,31.5,,,,> 100,,> 100
CCn1c(SCc2ccc(C)cc2)nnc1-c1nn(-c2ccc(Cl)cc2Cl)c(-c2ccc(Cl)cc2)c1C,2.83,12.6,1.51,3.39,2.35,13.2,2.62,15.4,1.04,6.31,2.26,13.9,3.02,11.8,3.11,15.3,,,2.66,10.8
CC(=O)C(=CN1CCN(C(=O)c2ccco2)C1=S)C(C)=O,5.19,19.1,23.4,54.9,,,3.64,17.3,2.83,9.72,,,,,3.94,25.8,2.51,12.1,2.92,10.8
